Test results taken from patent US20100298252A1, “METHODS AND COMPOSITIONS FOR OPHTHALMIC TREATMENT OF FUNGAL AND BACTERIAL INFECTIONS” (priority 2004, published 2010).
Several values for one entry are separate records, joined by “and”; a condition that tells them apart may be missing. Equal entries are not always repeated.

What was measured:
Assay type in all cases: cell-based
Enterococcus faecalis [1] = test: MIC and FIC index, microtiter checkerboard / broth dilution; settings: Ent. faecalis; antibiotic alone
Description: (§1) Agents and Chem. 210-217. (1967) and Sparks et al., Vet. Res. Comm. 18, 241-249 (1994), incorporated herein by reference in their entireties. […] Then 0.05 ml of an 18-hour old culture of a test organism, containing 10^6 colony-forming units (CFU)/ml, was added to each well. Controls for the culture and media were included in each plate. Plates were covered and incubated at 37° Celsius for 18-24 hours. […] To generate isobolograms, FICs of the two test solutions were plotted individually on the x-axis and y-axis to determine the effect of combining the two test solutions on bacterial growth. A line that curves away from, the zero point and the coordinates indicates antagonism. […] A numerical score or fractional inhibitory concentration (FIC) index was determined. The FIC index is equal to the sum of the values of FIC for the individual drugs: […] Am. Soc. Microbiol. Williams and Wilkins, Baltimore 1970), incorporated herein by reference in its entirety. […] Ps. aeruginosa, and Ent. faecalis.

Pseudomonas aeruginosa [2] = test: as above; settings: Ps. aeruginosa; antibiotic alone
Description: as §1

Staphylococcus aureus [3] = test: as above; settings: Staph. aureus; antibiotic alone
Description: as §1

Enterococcus faecalis [4] = test: Antibiotic resistance profile by disc diffusion; set-up: key: R = resistant; I = intermediate; S = sensitive; settings: disc diffusion on MHA
Description: (§2) The organisms of this study were isolated from human burn patients. They included strains of methicillin resistant Staphylococcus aureus, and vancomycin resistant strains of Pseudomonas aeruginosa and Enterococcus faecalis. The bacterial isolates were propagated in or on Brain Heart Infusion broth (BHI), Mueller-Hinton Broth (MHB), blood agar (BA), Mueller-Hinton agar (MHA), enterococcus agar (EA), or 2× nutrient agar (2×NA).
(§3) Antibiotic resistance profiles were determined by the disc diffusion method on MHA (5).

Pseudomonas aeruginosa [5] = test: Antibiotic resistance profile by disc diffusion; set-up: key: R = resistant; I = intermediate; S = sensitive; settings: disc diffusion on MHA
Description: as §2, §3

Staphylococcus aureus [6] = test: Antibiotic resistance profile by disc diffusion; set-up: key: R = resistant; I = intermediate; S = sensitive; settings: disc diffusion on MHA
Description: as §2, §3

Enterococcus faecalis [7] = test: Minimal Bactericidal Concentration, broth-dilution microtiter
Text: (§4) 307 (pub: Am. Soc. Microbiol. Williams and Wilkins, Baltimore 1970), incorporated herein by reference in its entirety.

Pseudomonas aeruginosa [8] = test: as above; settings: Ps. aeruginosa
Text: as §4

Staphylococcus aureus [9] = test: as above; settings: Staph. aureus
Text: as §4

[10] = neomycin co-administered with EDTA, 50 mM Tris

neomycin
MIC Individually Administered, antibiotic (Enterococcus faecalis [1]): 3130 µg/mL
MIC Individually Administered, antibiotic (Pseudomonas aeruginosa [2]): 1000 µg/mL
MIC Individually Administered, antibiotic (Staphylococcus aureus [3]): 3130 µg/mL
Antibiotic resistance profile (Enterococcus faecalis [4]): R
Antibiotic resistance profile (Pseudomonas aeruginosa [5]): R
Antibiotic resistance profile (Staphylococcus aureus [6]): R
MBC Individually Administered (Enterococcus faecalis [7]; En. faecalis, neomycin alone, 50 mM Tris): 25000 µg/mL
MBC Co-administered (Enterococcus faecalis [7]; En. faecalis, neomycin co-administered with EDTA, 50 mM Tris): 6250 µg/mL
Decrease of MBC value when EDTA and neomycin combined vs individually administered (Enterococcus faecalis [7]; Ent. faecalis): 75%
Decrease of MBC value when EDTA and neomycin combined vs individually administered (Pseudomonas aeruginosa [8]): 99.2%
MBC Individually Administered (Pseudomonas aeruginosa [8]; neomycin alone, 50 mM Tris): 5000 µg/mL
MBC Co-administered (Pseudomonas aeruginosa [8]; [10]): 40 µg/mL
Decrease of MBC value when EDTA and neomycin combined vs individually administered (Staphylococcus aureus [9]): about 50% and 50%
MBC Individually Administered (Staphylococcus aureus [9]; neomycin alone, 50 mM Tris): 3130 µg/mL
MBC Co-administered (Staphylococcus aureus [9]; [10]): 1560 µg/mL
